In patent US9862712B2, “Benzimidazole based EGFR inhibitors” (COUNCIL OF SCIENTIFIC & INDUSTRIAL RESEARCH, priority 2014, dated 2018):
“Also recorded” adds a separate entry of the source.

Columns and labels:
[1] = system: U87MG Cell line (Glioblastoma cell line); experiment: MTT cell proliferation assay, U87MG Cell line; type: cell-based; settings: for viability at 0.01 µM / viability at 0.1 µM / viability at 2.5 µM / viability at 5 µM / viability at 10 µM: Homo sapiens, U-87 MG, U87MG, 72 h, MTT; for anticancer activity against U87-MG Cell line (in words): compared among 15 molecules
Description: (§1) 1. Protocol Followed for Anti Cancer Activity and Results, Cell Proliferation Assays: Cell lines used herein were purchased from NCCS (National Center for Cell Sciences) Pune, India. Invitro Activity was performed in NCL (National Chemical Laboratory) Pune. Each cell line was plated in 96-well microtiter plates (10,000 cells per well), and serial dilutions of indicated compounds were added. At the end of the incubation period (72 h at 37° C.), cell viability was determined by a tetrazolium dye, MTT (3-(4,5-dimethylthiazol-2-yl)-2,5-diphenyl tetrazolium bromide) (Promega, USA). The formazan crystals were dissolved in DMSO, and the absorbance at 600 nm was recorded using an ELISA plate reader. IC50 values were calculated using nonlinear regression and defined as the concentration needed for a 50% reduction in absorbance of treated versus untreated control cells.
By using the above procedure, the compounds of the invention were tested on U87MG Cell line (glioblastoma cell line) and the results obtained are presented below in table 8, Refer FIG. 5.

Log P (Table 3) = type: physicochemical; settings: no method given
[2] = system: A549 Cell line (Lung Cancer Cell line); experiment: MTT cell proliferation assay, A549 Cell line; type: cell-based, human; settings: for viability at 0.01 µM / viability at 0.1 µM / viability at 2.5 µM / viability at 5 µM / viability at 10 µM: Homo sapiens, 72 h, MTT; for viability at 0.01 µM: A549, 0.01 μM; for viability at 0.1 µM: A549, 0.1 μM; for viability at 2.5 µM: A549, 2.5 μM; for viability at 5 µM: A549, 5 μM; for viability at 10 µM: A549, 10 μM; for anticancer activity against A549 Cell line (in words): compared among 15 molecules and with Gefitinib
Description: as §1
By using the above procedure, the compounds of the invention were tested on A549 Cell line and the results obtained are presented below in table 4, Refer FIG. 1.

MCF-7 Cell line = experiment: MTT cell proliferation assay, MCF-7 Cell line; type: cell-based; settings: for viability at 0.01 µM / viability at 0.1 µM / viability at 2.5 µM / viability at 5 µM / viability at 10 µM: Homo sapiens, MCF7, 72 h, MTT; for viability at 0.01 µM: MCF-7, 0.01 μM; for viability at 0.1 µM: MCF-7, 0.1 μM; for viability at 2.5 µM: MCF-7, 2.5 μM; for viability at 5 µM: MCF-7, 5 μM; for viability at 10 µM: MCF-7, 10 μM; for anticancer activity against MCF-7 Cell line (in words): compared among 15 molecules
Description: as §1
Table 4 indicates anticancer activity against A549 Cell line. The Gefitinib was used as standard and % cell Viable was measured compared to control. The procedure used was MTT assay as mentioned. […] By using the above procedure, the compounds of the invention were tested on MCF-7 Cell line and the results obtained are presented below in table 5, Refer FIG. 2.

HOP-62 Cell line = experiment: MTT cell proliferation assay, HOP-62 Cell line; type: cell-based; settings: for viability at 0.01 µM / viability at 0.1 µM / viability at 2.5 µM / viability at 5 µM / viability at 10 µM: Homo sapiens, 72 h, MTT; for viability at 0.01 µM: HOP-62, 0.01 μM; for viability at 0.1 µM: HOP-62, 0.1 μM; for viability at 2.5 µM: HOP-62, 2.5 μM; for viability at 5 µM: HOP-62, 5 μM; for viability at 10 µM: HOP-62, 10 μM; for anticancer activity against HOP-62 Cell line (in words): compared among 15 molecules and with Gefitinib
Description: as §1
By using the above procedure, the compounds of the invention were tested on HOP-62 Cell line and the results obtained are presented below in table 6, Refer FIG. 3.

MDA-MB-436 Cell line = experiment: MTT cell proliferation assay, MDA-MB-436 Cell line; type: cell-based; settings: for viability at 0.01 µM / viability at 0.1 µM / viability at 2.5 µM / viability at 5 µM / viability at 10 µM: Homo sapiens, 72 h, MTT; for viability at 0.01 µM: MDA-MB-436, 0.01 μM; for viability at 0.1 µM: MDA-MB-436, 0.1 μM; for viability at 2.5 µM: MDA-MB-436, 2.5 μM; for viability at 5 µM: MDA-MB-436, 5 μM; for viability at 10 µM: MDA-MB-436, 10 μM; for anticancer activity against MDA-MB-436 Cell line (in words): compared among 15 molecules and with Gefitinib
Description: as §1
By using the above procedure, the compounds of the invention were tested on MDA-MB-436 Cell line and the results obtained are presented below in table 7, Refer FIG. 4.

| SMILES | viability at 0.01 µM [1] | viability at 0.1 µM [1] | viability at 2.5 µM [1] | viability at 5 µM [1] | viability at 10 µM [1] | anticancer activity against U87-MG Cell line (in words) [1] | logP (Log P (Table 3)) | viability at 0.01 µM [2] | viability at 0.1 µM [2] | viability at 2.5 µM [2] | viability at 5 µM [2] | viability at 10 µM [2] | anticancer activity against A549 Cell line (in words) [2] | viability at 0.01 µM (MCF-7 Cell line) | viability at 0.1 µM (MCF-7 Cell line) | viability at 2.5 µM (MCF-7 Cell line) | viability at 5 µM (MCF-7 Cell line) | viability at 10 µM (MCF-7 Cell line) | melting point | viability at 0.01 µM (HOP-62 Cell line) | further results |
| --- | --- | --- | --- | --- | --- | --- | --- | --- | --- | --- | --- | --- | --- | --- | --- | --- | --- | --- | --- | --- | --- |
| Nc1nc(Nc2ccccc2)sc1-c1nc2ccccc2[nH]1 [Molecule S4-M1, 5-(1H-benzo[d]imidazol-2-yl)-N^2-phenylthiazole-2,4-diamine] | 40.8% | 32.4% | 23.1% | 14.6% | 8.94% | most active | 3.02 | 49.1% | 39.1% | 29.1% | 15.1% | 10.9% | most active | 69.8% | 60.4% | 49.1% | 42.6% | 30.9% | 268 to 270 °C | 54.1% | anticancer activity against MCF-7 Cell line (in words) (MCF-7 Cell line; listed as M1): most active; also recorded: showing Invitro activity; viability at 0.1 µM (HOP-62 Cell line): 42.1%; viability at 2.5 µM (HOP-62 Cell line): 34.1%; viability at 5 µM (HOP-62 Cell line): 22.1%; viability at 10 µM (HOP-62 Cell line): 12.9%; anticancer activity against HOP-62 Cell line (in words) (HOP-62 Cell line; listed as M1): most active; also recorded: Invitro activity comparable to standard Gefitinib; viability at 0.01 µM (MDA-MB-436 Cell line): 82.8%; viability at 0.1 µM (MDA-MB-436 Cell line): 70.4%; viability at 2.5 µM (MDA-MB-436 Cell line): 67.1%; viability at 5 µM (MDA-MB-436 Cell line): 54.6%; viability at 10 µM (MDA-MB-436 Cell line): 40.9%; anticancer activity against MDA-MB-436 Cell line (in words) (MDA-MB-436 Cell line; listed as M1): most active; also recorded: Invitro activity comparable to standard Gefitinib |
| Nc1nc(Nc2ccccc2[N+](=O)[O-])sc1-c1nc2ccccc2[nH]1 [Molecule S4-M4, 5-(1H-benzo[d]imidazol-2-yl)-N^2-(2-nitrophenyl)thiazole-2,4-diamine] | 45.7% | 33.2% | 22.8% | 18.9% | 8.86% | most active | 3.33 | 57.1% | 49.1% | 34.7% | 25.9% | 18.4% | most active | 72.7% | 61.2% | 53.8% | 42.9% | 31.9% | 220 to 222 °C | 43.1% | anticancer activity against MCF-7 Cell line (in words) (MCF-7 Cell line; listed as M4): most active; also recorded: showing Invitro activity; viability at 0.1 µM (HOP-62 Cell line): 36.1%; viability at 2.5 µM (HOP-62 Cell line): 25.7%; viability at 5 µM (HOP-62 Cell line): 18.9%; viability at 10 µM (HOP-62 Cell line): 12.4%; anticancer activity against HOP-62 Cell line (in words) (HOP-62 Cell line; listed as M4): most active; also recorded: Invitro activity comparable to standard Gefitinib; viability at 0.01 µM (MDA-MB-436 Cell line): 69.7%; viability at 0.1 µM (MDA-MB-436 Cell line): 58.2%; viability at 2.5 µM (MDA-MB-436 Cell line): 42.8%; viability at 5 µM (MDA-MB-436 Cell line): 28.9%; viability at 10 µM (MDA-MB-436 Cell line): 21.9%; anticancer activity against MDA-MB-436 Cell line (in words) (MDA-MB-436 Cell line; listed as M4): most active; also recorded: Invitro activity comparable to standard Gefitinib |
